Laboratory results reported in patent US20240376163A1, “PEPTIDE FOR INHIBITING CALCINEURIN AND USE THEREOF” (Seoul National University R&DB Foundation, priority 2023, published 2024).

System: Jurkat T cells
Assay: mRNA sequencing of activated Jurkat T cells
Assay type: cell-based, human

Structure (SMILES): C=CC[C@@H]1/C=C(\C)C[C@H](C)C[C@H](OC)[C@H]2O[C@@](O)(C(=O)C(=O)N3CCCC[C@H]3C(=O)O[C@H](/C(C)=C/[C@@H]3CC[C@@H](O)[C@H](OC)C3)[C@H](C)[C@@H](O)CC1=O)[C@H](C)C[C@@H]2OC [FK506, Tacrolimus, reference compound]
- GPR108 FPKM (P+I): 31.682 FPKM
- GPR183 FPKM (P+I): 5.776 FPKM
- GRAP2 FPKM (P+I): 19.094 FPKM
- GRK5 FPKM (P+I): 8.481 FPKM
- GZMH FPKM (P+I): 7.694 FPKM
- HAPLN3 FPKM (P+I): 48.4 FPKM
- HDC FPKM (P+I): 26.3 FPKM
- HHIP FPKM (P+I): 9.345 FPKM
- HHIP-AS1 FPKM (P+I): 32.468 FPKM
- HIVEP2 FPKM (P+I): 7.494 FPKM
- HSP90B1 FPKM (P+I): 877.39 FPKM
- HSP90B2P FPKM (P+I): 8.45 FPKM
- HSPA5 FPKM (P+I): 373.499 FPKM
- ICAM1 FPKM (P+I): 12.704 FPKM
- ID2 FPKM (P+I): 13.425 FPKM
- IER2 FPKM (P+I): 181.539 FPKM
- IER3 FPKM (P+I): 31.73 FPKM
- IFFO2 FPKM (P+I): 2.752 FPKM
- IFIH1 FPKM (P+I): 11.544 FPKM
- IFNG FPKM (P+I): 3.8 FPKM
- IGLL1 FPKM (P+I): 3.429 FPKM
- IGSF9B FPKM (P+I): 7.175 FPKM
- IL2RA FPKM (P+I): 5.833 FPKM
- IL3 FPKM (P+I): 0.062 FPKM
- IL4I1 FPKM (P+I): 7.078 FPKM
- IL16 FPKM (P+I): 10.552 FPKM
- IL22 FPKM (P+I): 3.116 FPKM
- IL23A FPKM (P+I): 12.207 FPKM
- IMPA2 FPKM (P+I): 3.015 FPKM
- IRF8 FPKM (P+I): 1.19 FPKM
- IRF9 FPKM (P+I): 39.109 FPKM
- ISM1 FPKM (P+I): 0.726 FPKM
- JAK3 FPKM (P+I): 8.03 FPKM
- JUN FPKM (P+I): 3.835 FPKM
- JUNB FPKM (P+I): 55.036 FPKM
- KBTBD11 FPKM (P+I): 2.434 FPKM
- KCNK5 FPKM (P+I): 3.906 FPKM
- KCTD11 FPKM (P+I): 3.399 FPKM
- KIAA0922 FPKM (P+I): 12.92 FPKM
- KIF1B FPKM (P+I): 11.727 FPKM
- KIF3B FPKM (P+I): 13.87 FPKM
- KLF2 FPKM (P+I): 1.971 FPKM
- KSR1 FPKM (P+I): 4.79 FPKM
- LAIR2 FPKM (P+I): 2.203 FPKM
- LAMP3 FPKM (P+I): 6.412 FPKM
- LAX1 FPKM (P+I): 8.052 FPKM
- LDLRAP1 FPKM (P+I): 0.778 FPKM
- LIME1 FPKM (P+I): 15.749 FPKM
- LINC00152 FPKM (P+I): 32.822 FPKM
- LINC00426 FPKM (P+I): 1.041 FPKM
- LINC00528 FPKM (P+I): 5.759 FPKM
- LINC00539 FPKM (P+I): 5.004 FPKM
- LINC00977 FPKM (P+I): 0.741 FPKM
- LOC729603 FPKM (P+I): 2.179 FPKM
- LRRC8B FPKM (P+I): 3.555 FPKM
- LRRC45 FPKM (P+I): 4.142 FPKM
- LYPD3 FPKM (P+I): 2.727 FPKM
- MAP2K3 FPKM (P+I): 41.815 FPKM
- MAP2K6 FPKM (P+I): 1.149 FPKM
- MBOAT2 FPKM (P+I): 3.773 FPKM
- MCM4 FPKM (P+I): 26.368 FPKM
- MCM5 FPKM (P+I): 37.057 FPKM
- METRNL FPKM (P+I): 7.501 FPKM
- MIR221 FPKM (P+I): 10.429 FPKM
- MIR4435-1HG FPKM (P+I): 17.138 FPKM
- MIR6891 FPKM (P+I): 24.428 FPKM
- MMP10 FPKM (P+I): 11.973 FPKM
- MRPL39 FPKM (P+I): 132.452 FPKM
- MYO1D FPKM (P+I): 4.59 FPKM
- MYO1G FPKM (P+I): 98.59 FPKM
- MYO7B FPKM (P+I): 15.796 FPKM
- NAMPT FPKM (P+I): 34.628 FPKM
- NDFIP1 FPKM (P+I): 22.485 FPKM
- NDFIP2 FPKM (P+I): 13.13 FPKM
- NDST3 FPKM (P+I): 10.369 FPKM
- NEIL3 FPKM (P+I): 9.418 FPKM
- NEXN FPKM (P+I): 3.661 FPKM
- NFE2L3 FPKM (P+I): 15.944 FPKM
- NFKBIA FPKM (P+I): 39.193 FPKM
- NFKBID FPKM (P+I): 6.668 FPKM
- NFKBIE FPKM (P+I): 11.399 FPKM
- NINJ1 FPKM (P+I): 11.769 FPKM
- NKD2 FPKM (P+I): 3.385 FPKM
- NKX3-1 FPKM (P+I): 7.464 FPKM
- NLRC5 FPKM (P+I): 38.784 FPKM
- NPY FPKM (P+I): 4.771 FPKM
- NR4A1 FPKM (P+I): 52.553 FPKM
- NR4A2 FPKM (P+I): 0.04 FPKM
- NRROS FPKM (P+I): 36.775 FPKM
- NT5M FPKM (P+I): 1.582 FPKM
- NXN FPKM (P+I): 2.574 FPKM
- OAS3 FPKM (P+I): 13.085 FPKM
- OSBPL3 FPKM (P+I): 24.517 FPKM
- PARP9 FPKM (P+I): 84.306 FPKM
- PARP14 FPKM (P+I): 65.432 FPKM
- PCBP3 FPKM (P+I): 4.527 FPKM
- PDE3B FPKM (P+I): 9.108 FPKM
- PEAK1 FPKM (P+I): 5.442 FPKM
- PELI1 FPKM (P+I): 8.175 FPKM
- PHEX FPKM (P+I): 0.213 FPKM
- PHF7 FPKM (P+I): 3.968 FPKM
- PHLDA1 FPKM (P+I): 65.703 FPKM
- PIDD1 FPKM (P+I): 5.28 FPKM
- PIM3 FPKM (P+I): 42.827 FPKM
- PKIA FPKM (P+I): 13.962 FPKM
- PLAU FPKM (P+I): 45.171 FPKM
- PLEKHO1 FPKM (P+I): 47.519 FPKM
- PLK3 FPKM (P+I): 5.257 FPKM
- PMAIP1 FPKM (P+I): 26.095 FPKM
- PMEPA1 FPKM (P+I): 3.548 FPKM
- PODXL FPKM (P+I): 1.86 FPKM
- POU3F2 FPKM (P+I): 1.044 FPKM
- PPFIBP1 FPKM (P+I): 12.205 FPKM
- PPM1H FPKM (P+I): 4.492 FPKM
- PRKCA FPKM (P+I): 14.104 FPKM
- PTK2 FPKM (P+I): 13.215 FPKM
- PTPN22 FPKM (P+I): 6.37 FPKM
- PTPRE FPKM (P+I): 14.031 FPKM
- PWWP2B FPKM (P+I): 2.769 FPKM
- PXMP2 FPKM (P+I): 5.624 FPKM
- RAG1 FPKM (P+I): 0.251 FPKM
- RAG2 FPKM (P+I): 0.173 FPKM
- RAP1GAP2 FPKM (P+I): 0.368 FPKM
- RAP1GAP FPKM (P+I): 1.878 FPKM
- RDH10 FPKM (P+I): 5.856 FPKM
- REL FPKM (P+I): 4.749 FPKM
- RELB FPKM (P+I): 29.337 FPKM
- RGS3 FPKM (P+I): 2.142 FPKM
- RGS16 FPKM (P+I): 1.172 FPKM
- RMI1 FPKM (P+I): 8.984 FPKM
- RORB FPKM (P+I): 3.782 FPKM
- S1PR1 FPKM (P+I): 0.737 FPKM
- SAMD1 FPKM (P+I): 15.561 FPKM
- SECISBP2L FPKM (P+I): 13.57 FPKM
- SELPLG FPKM (P+I): 5.062 FPKM
- SEMA7A FPKM (P+I): 26.567 FPKM
- SERPINB2 FPKM (P+I): 2.905 FPKM
- SERPINE1 FPKM (P+I): 6.785 FPKM
- SH2B3 FPKM (P+I): 13.899 FPKM
- SH2D5 FPKM (P+I): 1.469 FPKM
- SH3BGRL3 FPKM (P+I): 408.163 FPKM
- SH3RF2 FPKM (P+I): 27.941 FPKM
- SHC4 FPKM (P+I): 0.663 FPKM
- SIT1 FPKM (P+I): 48.56 FPKM
- SIX6 FPKM (P+I): 15.688 FPKM
- SLC2A3 FPKM (P+I): 45.525 FPKM
- SLC2A4RG FPKM (P+I): 2.367 FPKM
- SLC7A5 FPKM (P+I): 207.842 FPKM
- SLC25A45 FPKM (P+I): 3.26 FPKM
- SLCO3A1 FPKM (P+I): 3.481 FPKM
- SLIT1 FPKM (P+I): 2.6 FPKM
- SMIM14 FPKM (P+I): 7.677 FPKM
- SOCS1 FPKM (P+I): 9.708 FPKM
- SOCS3 FPKM (P+I): 8.922 FPKM
- SOSTDC1 FPKM (P+I): 8.472 FPKM
- SPRY2 FPKM (P+I): 16.882 FPKM
- SREBF1 FPKM (P+I): 14.076 FPKM
- ST3GAL6-AS1 FPKM (P+I): 9.039 FPKM
- ST8SIA4 FPKM (P+I): 11.077 FPKM
- STARD4 FPKM (P+I): 20.118 FPKM
- STAT1 FPKM (P+I): 611.139 FPKM
- STAT5A FPKM (P+I): 3.347 FPKM
- STX11 FPKM (P+I): 2.733 FPKM
- SYTL1 FPKM (P+I): 15.004 FPKM
- TBC1D10C FPKM (P+I): 23.871 FPKM
- TBC1D20 FPKM (P+I): 17.7 FPKM
- TBX21 FPKM (P+I): 24.784 FPKM
- THY1 FPKM (P+I): 3.994 FPKM
- TIMP2 FPKM (P+I): 1.948 FPKM
- TM4SF1 FPKM (P+I): 0.439 FPKM
- TM7SF3 FPKM (P+I): 29.483 FPKM
- TMEM229B FPKM (P+I): 6.813 FPKM
- TMTC4 FPKM (P+I): 2.677 FPKM
- TNFRSF4 FPKM (P+I): 2.933 FPKM
- TNFRSF12A FPKM (P+I): 8.559 FPKM
- TNFRSF14 FPKM (P+I): 12.35 FPKM
- TNFSF9 FPKM (P+I): 2.568 FPKM
- TNRC6C FPKM (P+I): 4.711 FPKM
- TNS3 FPKM (P+I): 0.678 FPKM
- TRAF1 FPKM (P+I): 11.176 FPKM
- TRAT1 FPKM (P+I): 7.968 FPKM
- TRIM22 FPKM (P+I): 2.908 FPKM
- TSHR FPKM (P+I): 1.535 FPKM
- TSPAN2 FPKM (P+I): 2.414 FPKM
- TSPAN7 FPKM (P+I): 44.718 FPKM
- TTC28 FPKM (P+I): 2.798 FPKM
- TUBB2A FPKM (P+I): 7.594 FPKM
- TUBB3 FPKM (P+I): 9.713 FPKM
- UHRF1BP1L FPKM (P+I): 7.474 FPKM
- USP30-AS1 FPKM (P+I): 6.464 FPKM
- VANGL1 FPKM (P+I): 9.553 FPKM
- VASH2 FPKM (P+I): 5.761 FPKM
- VGF FPKM (P+I): 59.749 FPKM
- XAF1 FPKM (P+I): 15.924 FPKM
- XBP1 FPKM (P+I): 43.828 FPKM
- XYLB FPKM (P+I): 1.506 FPKM
- YBX2 FPKM (P+I): 1.555 FPKM
- ZC3H12A FPKM (P+I): 13.36 FPKM
- CD27 and CD70 expression (upon T-cell activation): inhibited CD27 and CD70
- RNA levels of representative T-cell activation markers (IL2, IL3, NFATC1, CCL4, CCL20, CXCL8) (upon T-cell activation): reduced RNA levels of representative T-cell activation markers
